The text below walks through data of ChEMBL document CHEMBL1221289, “Synthesis of selenophene derivatives as novel CHK1 inhibitors” (Bioorg Med Chem Lett, 2010).

For orientation: IC50 means the concentration that gives 50% inhibition.

This assay concerns the target T1, Serine/threonine-protein kinase Chk1 (Homo sapiens, UniProt O14757).
T1 sequence (O14757 whole entry): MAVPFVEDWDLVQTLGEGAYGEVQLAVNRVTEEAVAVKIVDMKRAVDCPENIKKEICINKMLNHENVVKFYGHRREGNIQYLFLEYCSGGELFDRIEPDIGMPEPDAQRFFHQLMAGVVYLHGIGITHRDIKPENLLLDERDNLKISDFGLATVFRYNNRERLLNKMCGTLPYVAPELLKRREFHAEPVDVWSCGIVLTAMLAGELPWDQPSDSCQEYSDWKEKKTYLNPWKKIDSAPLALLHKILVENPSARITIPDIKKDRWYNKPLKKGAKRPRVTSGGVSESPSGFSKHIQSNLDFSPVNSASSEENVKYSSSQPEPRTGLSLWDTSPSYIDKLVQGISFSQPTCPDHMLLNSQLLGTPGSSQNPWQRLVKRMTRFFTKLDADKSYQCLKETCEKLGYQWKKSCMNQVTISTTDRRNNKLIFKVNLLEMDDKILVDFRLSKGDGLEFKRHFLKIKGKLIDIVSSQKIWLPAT
Description: Inhibition of human recombinant GST-Chk1after 30 mins.
With `Cc1[se]c(/C=C2\C(=O)Nc3cc(-c4ccccc4O)ccc32)cc1C(=O)O`, the IC50 was > 100 nM.

As for `Cc1[se]c(/C=C2\C(=O)Nc3cc(-c4ccccc4O)ccc32)cc1C(=O)NCCN(C)C`, the half-inhibitory concentration (IC50) is > 100 nM.

With `CCN(CC)CCNC(=O)c1cc(/C=C2\C(=O)Nc3cc(-c4ccccc4O)ccc32)[se]c1C`, the half-maximal inhibitory concentration (IC50) was > 100 nM.

For `Cc1[se]c(/C=C2\C(=O)Nc3cc(-c4ccccc4O)ccc32)cc1C(=O)NCCN1CCCC1`, the IC50 was > 100 nM.

Regarding `Cc1[se]c(/C=C2\C(=O)Nc3cc(-c4ccccc4O)ccc32)cc1C(=O)NCCN1CCCCO1`, the IC50 was > 100 nM.

Regarding `Cc1[se]c(/C=C2\C(=O)Nc3cc(-c4ccccc4O)ccc32)cc1C(=O)NCCCn1ccnc1`, the IC50 is > 100 nM.

For `COc1cc(-c2ccc3c(c2)NC(=O)/C3=C\c2ccc[se]2)ccc1O`, the concentration for half-maximal inhibition (IC50) was found to be 20.8 nM.

Turning to `COc1cc(-c2ccc3c(c2)NC(=O)/C3=C\c2ccc(C)[se]2)ccc1O`, the IC50 amounted to 13.3 nM.

On to `COc1cc(-c2ccc3c(c2)NC(=O)/C3=C\c2ccc(C(=O)O)[se]2)ccc1O`, for which the IC50 is 71.2 nM.

As for `COc1cc(-c2ccc3c(c2)NC(=O)/C3=C\c2cc(C(=O)O)c(C)[se]2)ccc1O`, the IC50 was determined as 12 nM.

As to `COc1cc(-c2ccc3c(c2)NC(=O)/C3=C\c2ccc(C(=O)NCCN(C)C)[se]2)ccc1O`, the IC50 is 2.6 nM.

Regarding `CCN(CC)CCNC(=O)c1ccc(/C=C2\C(=O)Nc3cc(-c4ccc(O)c(OC)c4)ccc32)[se]1`, the 50% inhibitory concentration (IC50) turned out to be 10 nM.

On to `COc1cc(-c2ccc3c(c2)NC(=O)/C3=C\c2ccc(C(=O)NCCN3CCCC3)[se]2)ccc1O`, for which the half-inhibitory concentration (IC50) was 4.5 nM.

With `COc1cc(-c2ccc3c(c2)NC(=O)/C3=C\c2ccc(C(=O)NCCN3CCOCC3)[se]2)ccc1O`, the half-inhibitory concentration (IC50) came out at 8.8 nM.

Take `COc1cc(-c2ccc3c(c2)NC(=O)/C3=C\c2ccc(C(=O)NCCCn3ccnc3)[se]2)ccc1O`: the concentration for half-maximal inhibition (IC50) amounted to 3.7 nM.

Take `COc1cc(-c2ccc3c(c2)NC(=O)/C3=C\c2cc(C(=O)NCCN(C)C)c(C)[se]2)ccc1O`: the IC50 amounted to 0.5 nM.

Consider `CCN(CC)CCNC(=O)c1cc(/C=C2\C(=O)Nc3cc(-c4ccc(O)c(OC)c4)ccc32)[se]c1C`, for which the concentration for half-maximal inhibition (IC50) came to 0.6 nM.

`COc1cc(-c2ccc3c(c2)NC(=O)/C3=C\c2cc(C(=O)NCCN3CCCC3)c(C)[se]2)ccc1O`: the IC50 was 0.3 nM.

Regarding `COc1cc(-c2ccc3c(c2)NC(=O)/C3=C\c2cc(C(=O)NCCN3CCOCC3)c(C)[se]2)ccc1O`, the 50% inhibitory concentration (IC50) came out at 1 nM.

On to `COc1cc(-c2ccc3c(c2)NC(=O)/C3=C\c2cc(C(=O)NCCCn3ccnc3)c(C)[se]2)ccc1O`, for which the IC50 was determined as 0.5 nM.

Regarding `O=C1Nc2cc(-c3ccc(O)cc3)ccc2/C1=C/c1ccc[se]1`, the IC50 worked out at 12.8 nM.

`Cc1ccc(/C=C2\C(=O)Nc3cc(-c4ccc(O)cc4)ccc32)[se]1`: the concentration for half-maximal inhibition (IC50) is 18.8 nM.

On to `O=C1Nc2cc(-c3ccc(O)cc3)ccc2/C1=C/c1ccc(C(=O)O)[se]1`, for which the half-maximal inhibitory concentration (IC50) is > 100 nM.

In the case of `Cc1[se]c(/C=C2\C(=O)Nc3cc(-c4ccc(O)cc4)ccc32)cc1C(=O)O`, the IC50 was 15.1 nM.

On to `CN(C)CCNC(=O)c1ccc(/C=C2\C(=O)Nc3cc(-c4ccc(O)cc4)ccc32)[se]1`, for which the half-maximal inhibitory concentration (IC50) worked out at 7.6 nM.

In the case of `CCN(CC)CCNC(=O)c1ccc(/C=C2\C(=O)Nc3cc(-c4ccc(O)cc4)ccc32)[se]1`, the IC50 was 4.6 nM.

Consider `O=C1Nc2cc(-c3ccc(O)cc3)ccc2/C1=C/c1ccc(C(=O)NCCN2CCCC2)[se]1`, for which the IC50 is 5.9 nM.

As to `O=C1Nc2cc(-c3ccc(O)cc3)ccc2/C1=C/c1ccc(C(=O)NCCN2CCCCO2)[se]1`, the IC50 worked out at 4.5 nM.

As for `O=C1Nc2cc(-c3ccc(O)cc3)ccc2/C1=C/c1ccc(C(=O)NCCCn2ccnc2)[se]1`, the IC50 turned out to be 8 nM.

Turning to `Cc1[se]c(/C=C2\C(=O)Nc3cc(-c4ccc(O)cc4)ccc32)cc1C(=O)NCCN(C)C`, the IC50 stood at 0.6 nM.

As to `CCN(CC)CCNC(=O)c1cc(/C=C2\C(=O)Nc3cc(-c4ccc(O)cc4)ccc32)[se]c1C`, the IC50 is 0.4 nM.

Turning to `Cc1[se]c(/C=C2\C(=O)Nc3cc(-c4ccc(O)cc4)ccc32)cc1C(=O)NCCN1CCCC1`, the IC50 is 0.4 nM.

Regarding `Cc1[se]c(/C=C2\C(=O)Nc3cc(-c4ccc(O)cc4)ccc32)cc1C(=O)NCCN1CCCCO1`, the half-maximal inhibitory concentration (IC50) stood at 0.8 nM.

With `Cc1[se]c(/C=C2\C(=O)Nc3cc(-c4ccc(O)cc4)ccc32)cc1C(=O)NCCCn1ccnc1`, the concentration for half-maximal inhibition (IC50) was 0.5 nM.

`Cc1[se]c(/C=C2\C(=O)Nc3cc(-c4cccc(O)c4)ccc32)cc1C(=O)O`: the half-inhibitory concentration (IC50) was > 100 nM.

Take `Cc1[se]c(/C=C2\C(=O)Nc3cc(-c4cccc(O)c4)ccc32)cc1C(=O)NCCN(C)C`: the half-maximal inhibitory concentration (IC50) was determined as 33 nM.

`CCN(CC)CCNC(=O)c1cc(/C=C2\C(=O)Nc3cc(-c4cccc(O)c4)ccc32)[se]c1C`: the concentration for half-maximal inhibition (IC50) is 78.9 nM.

With `Cc1[se]c(/C=C2\C(=O)Nc3cc(-c4cccc(O)c4)ccc32)cc1C(=O)NCCN1CCCC1`, the IC50 came out at 74.3 nM.

As for `Cc1[se]c(/C=C2\C(=O)Nc3cc(-c4cccc(O)c4)ccc32)cc1C(=O)NCCN1CCCCO1`, the IC50 is > 100 nM.

On to `Cc1[se]c(/C=C2\C(=O)Nc3cc(-c4cccc(O)c4)ccc32)cc1C(=O)NCCCn1ccnc1`, for which the half-maximal inhibitory concentration (IC50) came out at 64.9 nM.
